Assay results as given in patent publication US20250333407A1, “Compounds and Their Use for Treatment of Hemoglobinopathies” (Bristol-Myers Squibb Company, priority 2024, published 2025).

Columns and labels:
Format in all cases: cell-based
HbF = HbF HiBiT induction assay in HUDEP-2 cells; conditions: HUDEP-2 cells with HiBiT tag in HBG1/2, 72 hours of treatment; area under the dose response curve, higher AUC = greater HbF induction
Method: HbF HiBiT induction assay. The HiBiT induction assay for HbF in HUDEP-2 cells was performed as described below. HUDEP-2 cells engineered to express a HiBiT tag in HBG1/2 were maintained at a density of 0.1-1×10^6 cells/ml in StemSpan SFEM II supplemented with 1% penicillin/streptomycin, hSCF (50 ng/mL), erythropoietin (EPO; 3 IU/mL), dexamethasone (DEX; 0.4 μg/mL), and doxycycline hyclate (DOX; 1 μg/mL). The cells were cultured in low adherence flasks, in a humidified incubator, set at 37° C. with 5% CO2. Cell counts and viability were measured by trypan blue exclusion using the Vi-CELL XR cell viability analyzer and the cell growth was consistently maintained in log phase.
Prior to the start of experiments, HbF HiBiT-tagged HUDEP-2 cells were transferred to a 50 mL conical and centrifuged at 500×g for 5 minutes, the supernatant removed, and the pellet washed in 5 mL of 1×PBS. The washed cells were centrifuged again at 500×g for 5 minutes and resuspended in IMDM containing; 1×glutamine, 1×penicillin/streptomycin, holo-transferrin (330 μg/mL), heparin (2 IU/mL), r-human insulin (10 μg/mL), EPO (3 IU/mL), 5% human plasma, hSCF (100 ng/mL) and DOX (1 μg/mL) to a final density of 0.3×10^6 cells/mL. Forty microliters of cell suspension were dispensed into 384-well Low Flange White Flat Bottom Polystyrene TC-treated Microplates containing pre-dispensed compounds, using a VIAFLO 384 liquid hander, and placed in a humidified incubator at 37° C. with 5% CO2. […] After 72 hours of treatment, 40 μL of Nano-Glo HiBiT Lytic Solution (prepared according to manufacturer's instructions) were dispensed into each well using a VIAFLO 384 liquid handler, and the plates were shaken for 20 seconds. Plates were incubated for 20 minutes at room temperature, and the luminescence was read as relative luminescent units using an EnVision plate reader.
Dose response curves were generated, and EC50, Ymax, and then area under the curve (AUC) values were calculated. HbF induction was measured using the calculated area under the curve (AUC) value, with higher AUC values indicative of greater HbF induction relative to lower AUC values.

WIZ = molecular target: T1, WIZ (Homo sapiens, UniProt O95785+Q96SW2); assay: HUDEP-2 WIZ HiBiT degradation assay; conditions: HiBiT-tagged WIZ degradation in HUDEP-2 cells, 24 hours of treatment; read-out: WIZ EC50
T1 construct: HUDEP-2 cells engineered to express a HiBiT tag in either the WIZ (Widely interspaced zinc finger) or ZBTB7A
T1 sequence (O95785 whole entry): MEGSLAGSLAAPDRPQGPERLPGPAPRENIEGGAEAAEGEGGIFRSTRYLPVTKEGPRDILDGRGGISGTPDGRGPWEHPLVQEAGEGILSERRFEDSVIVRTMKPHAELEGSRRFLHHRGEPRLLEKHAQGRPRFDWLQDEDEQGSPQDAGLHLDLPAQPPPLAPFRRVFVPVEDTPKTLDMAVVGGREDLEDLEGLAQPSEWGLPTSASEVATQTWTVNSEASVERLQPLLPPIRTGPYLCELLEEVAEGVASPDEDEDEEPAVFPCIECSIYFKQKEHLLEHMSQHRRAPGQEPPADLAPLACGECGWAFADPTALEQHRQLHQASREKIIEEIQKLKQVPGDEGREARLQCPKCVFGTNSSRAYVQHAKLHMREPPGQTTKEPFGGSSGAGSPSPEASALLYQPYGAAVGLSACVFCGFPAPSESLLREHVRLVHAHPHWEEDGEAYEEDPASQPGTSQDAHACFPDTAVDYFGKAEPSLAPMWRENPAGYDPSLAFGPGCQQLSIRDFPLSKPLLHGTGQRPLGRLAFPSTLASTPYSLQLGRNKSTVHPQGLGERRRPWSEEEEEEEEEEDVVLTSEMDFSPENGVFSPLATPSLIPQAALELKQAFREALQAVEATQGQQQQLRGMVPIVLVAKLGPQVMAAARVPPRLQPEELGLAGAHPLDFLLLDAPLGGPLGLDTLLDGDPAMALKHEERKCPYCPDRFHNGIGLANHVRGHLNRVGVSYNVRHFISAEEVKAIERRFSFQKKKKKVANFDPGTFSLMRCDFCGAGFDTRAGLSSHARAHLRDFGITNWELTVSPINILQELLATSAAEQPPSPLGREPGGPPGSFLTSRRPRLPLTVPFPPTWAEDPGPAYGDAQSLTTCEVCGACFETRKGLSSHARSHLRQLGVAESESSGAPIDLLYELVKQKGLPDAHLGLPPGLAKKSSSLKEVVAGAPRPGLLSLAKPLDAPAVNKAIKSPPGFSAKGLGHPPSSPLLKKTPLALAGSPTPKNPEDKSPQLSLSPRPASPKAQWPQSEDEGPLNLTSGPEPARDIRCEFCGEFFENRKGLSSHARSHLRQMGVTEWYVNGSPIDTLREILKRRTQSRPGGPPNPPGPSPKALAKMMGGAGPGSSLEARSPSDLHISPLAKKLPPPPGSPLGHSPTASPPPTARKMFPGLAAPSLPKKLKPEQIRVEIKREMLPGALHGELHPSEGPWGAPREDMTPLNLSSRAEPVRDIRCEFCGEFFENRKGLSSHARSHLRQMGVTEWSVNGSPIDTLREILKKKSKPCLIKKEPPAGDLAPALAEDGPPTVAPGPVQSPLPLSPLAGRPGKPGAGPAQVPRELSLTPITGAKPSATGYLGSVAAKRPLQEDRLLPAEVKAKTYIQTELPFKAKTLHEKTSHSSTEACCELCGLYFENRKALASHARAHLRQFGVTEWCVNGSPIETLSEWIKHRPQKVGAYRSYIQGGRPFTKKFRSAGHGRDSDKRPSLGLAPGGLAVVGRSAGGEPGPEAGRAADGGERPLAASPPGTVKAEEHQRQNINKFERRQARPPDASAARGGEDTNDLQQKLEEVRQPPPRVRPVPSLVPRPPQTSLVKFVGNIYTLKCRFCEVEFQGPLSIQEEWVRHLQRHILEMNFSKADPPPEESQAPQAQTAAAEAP
T1 sequence (Q96SW2 whole entry): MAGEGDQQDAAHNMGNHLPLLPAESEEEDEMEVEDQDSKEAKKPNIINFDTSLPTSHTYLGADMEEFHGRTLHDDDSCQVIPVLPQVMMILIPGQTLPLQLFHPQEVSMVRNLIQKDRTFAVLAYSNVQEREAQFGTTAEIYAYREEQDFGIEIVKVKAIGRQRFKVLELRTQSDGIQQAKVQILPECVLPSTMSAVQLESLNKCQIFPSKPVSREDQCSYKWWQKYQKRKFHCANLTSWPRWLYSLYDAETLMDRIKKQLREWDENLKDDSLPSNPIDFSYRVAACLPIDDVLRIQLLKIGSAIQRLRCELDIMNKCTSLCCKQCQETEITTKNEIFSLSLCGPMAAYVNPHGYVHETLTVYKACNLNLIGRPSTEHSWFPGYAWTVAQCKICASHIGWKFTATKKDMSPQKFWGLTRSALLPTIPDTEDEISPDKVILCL
T1 sequence (Q16531 whole entry partner): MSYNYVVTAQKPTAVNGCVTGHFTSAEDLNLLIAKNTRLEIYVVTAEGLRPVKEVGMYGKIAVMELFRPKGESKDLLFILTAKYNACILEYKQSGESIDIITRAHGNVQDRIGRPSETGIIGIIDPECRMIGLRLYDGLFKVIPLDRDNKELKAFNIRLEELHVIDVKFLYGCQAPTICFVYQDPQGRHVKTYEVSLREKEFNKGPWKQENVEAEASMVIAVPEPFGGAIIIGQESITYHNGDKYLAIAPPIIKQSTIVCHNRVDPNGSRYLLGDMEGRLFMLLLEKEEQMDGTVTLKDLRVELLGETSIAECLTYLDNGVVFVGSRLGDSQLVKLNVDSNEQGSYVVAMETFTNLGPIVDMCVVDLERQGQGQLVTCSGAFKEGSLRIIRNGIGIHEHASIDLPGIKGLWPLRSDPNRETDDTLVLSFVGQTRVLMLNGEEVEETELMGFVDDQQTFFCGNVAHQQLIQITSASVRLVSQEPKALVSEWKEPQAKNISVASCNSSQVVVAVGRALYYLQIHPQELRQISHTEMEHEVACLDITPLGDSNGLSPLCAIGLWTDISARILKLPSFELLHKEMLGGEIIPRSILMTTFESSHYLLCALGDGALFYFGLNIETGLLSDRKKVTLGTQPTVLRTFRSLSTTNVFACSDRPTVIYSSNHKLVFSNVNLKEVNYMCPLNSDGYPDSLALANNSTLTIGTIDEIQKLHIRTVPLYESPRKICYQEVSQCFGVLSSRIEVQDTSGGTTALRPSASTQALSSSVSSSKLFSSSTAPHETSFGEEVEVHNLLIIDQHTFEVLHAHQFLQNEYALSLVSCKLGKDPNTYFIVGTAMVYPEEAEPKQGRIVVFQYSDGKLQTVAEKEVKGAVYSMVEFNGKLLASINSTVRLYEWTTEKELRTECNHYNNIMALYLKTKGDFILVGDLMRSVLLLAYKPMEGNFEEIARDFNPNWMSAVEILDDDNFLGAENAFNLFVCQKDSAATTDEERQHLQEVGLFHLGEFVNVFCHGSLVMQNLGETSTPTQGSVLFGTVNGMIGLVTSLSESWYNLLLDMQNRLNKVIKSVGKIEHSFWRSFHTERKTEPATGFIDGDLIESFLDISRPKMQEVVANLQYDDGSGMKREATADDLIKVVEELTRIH
Method: (§1) WIZ Assay and ZBTB7A EC50 Assays. The HiBiT degradation assays for WIZ and ZBTB7A in HUDEP-2 cells were performed as described below. HUDEP-2 cells engineered to express a HiBiT tag in either the WIZ (Widely interspaced zinc finger) or ZBTB7A (Zinc Finger And BTB Domain Containing 7A) proteins were maintained in low attachment flasks in StemSpan SFEM II media supplemented with Penicillin-Streptomycin (50 U/mL), rhSCF (50 ng/mL), rhEPO (3 IU/mL), dexamethasone (0.4 μg/mL) and doxycycline (1 μg/mL). Prior to start of the assay, cell count and viability were measured by trypan blue exclusion using the Vi-cell XR cell viability analyzer.
For the HUDEP-2 WIZ HiBiT assay, cells were transferred to a 50 mL conical and centrifuged at 500 g for five minutes. Cells were resuspended in fresh StemSpan SFEM II media supplemented with Penicillin-Streptomycin (50 U/mL), rhSCF (50 ng/mL), rhEPO (3 IU/mL), dexamethasone (0.4 μg/mL) and doxycycline (1 μg/mL) at a density of 1.0×10^6 cells/ml. Forty microliters of cell suspension was dispensed into 384-well Low Flange White Flat Bottom Polystyrene TC-treated Microplates containing pre-dispensed compounds, using a VIAFLO 384 liquid hander, and placed in a 37° C. incubator with 5% CO2. […] After 24 hours of treatment, 40 μL Nano-Glo HiBiT Lytic Detection System reagent was dispensed into each well using a VIAFLO 384 liquid hander. Plates were incubated for 25 minutes at room temperature and the luminescence was read as relative luminescent units using the EnVision plate reader. EC50 and Y-min values were calculated using curves calculated from dotmatics software after the normalization to the DMSO control of 10 different concentrations: 10, 3.33, 1.11, 0.37, 0.12, 0.04 0.0137, 0.0046, 0.0015 and […] respectively.

ZBTB7A = molecular target: T2, ZBTB7A (Homo sapiens, UniProt O95365+Q96SW2); assay: HUDEP-2 ZBTB7A HiBiT degradation assay; conditions: HiBiT-tagged ZBTB7A degradation in HUDEP-2 cells, 24 hours of treatment; read-out: ZBTB7A EC50
T2 construct: HUDEP-2 cells engineered to express a HiBiT tag in either the WIZ (Widely interspaced zinc finger) or ZBTB7A
T2 sequence (O95365 whole entry): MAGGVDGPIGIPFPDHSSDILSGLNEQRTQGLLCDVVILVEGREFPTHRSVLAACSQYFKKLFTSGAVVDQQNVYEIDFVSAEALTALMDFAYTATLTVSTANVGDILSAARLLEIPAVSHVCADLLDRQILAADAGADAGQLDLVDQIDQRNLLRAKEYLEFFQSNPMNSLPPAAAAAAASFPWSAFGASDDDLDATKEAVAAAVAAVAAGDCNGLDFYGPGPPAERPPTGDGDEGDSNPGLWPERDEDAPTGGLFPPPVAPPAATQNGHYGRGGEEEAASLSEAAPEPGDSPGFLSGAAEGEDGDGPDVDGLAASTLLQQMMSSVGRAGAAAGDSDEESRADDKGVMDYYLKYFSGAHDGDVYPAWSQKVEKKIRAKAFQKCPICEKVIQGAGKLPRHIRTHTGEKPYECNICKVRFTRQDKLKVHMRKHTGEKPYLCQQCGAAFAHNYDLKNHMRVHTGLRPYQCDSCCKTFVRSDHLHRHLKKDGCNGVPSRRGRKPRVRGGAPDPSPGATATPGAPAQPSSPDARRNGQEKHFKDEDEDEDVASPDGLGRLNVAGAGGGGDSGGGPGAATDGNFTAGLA
T2 sequence (Q96SW2 whole entry): as the sequence (Q96SW2 whole entry) above
T2 sequence (Q16531 whole entry partner): as the sequence (Q16531 whole entry partner) above
Method: as §1
For the HUDEP-2 ZBTB7A HiBiT assay, cell count and viability were measured by trypan blue exclusion using the Vi-cell XR cell viability analyzer and the cells were transferred to a 50 mL conical and centrifuged at 500 g for five minutes. Cells were resuspended in fresh IMDM media supplemented with L-Glutamine (1×), Penicillin-Streptomycin (50 U/mL), holo-transferrin (330 μg/mL), heparin (2 IU/mL), r-human Insulin (10 μg/mL), rhEPO (3 IU/mL), rhSCF (100 ng/mL)+Dox (1 μg/mL) and 5% human plasma in low attachment flasks, which were placed in a 37° C. incubator with 5% CO2. After 48 hours, cell count and viability were measured by trypan blue exclusion using the Vi-cell XR cell viability analyzer. The HUDEP-2 ZBTB7A cells were transferred to a 50 mL conical, centrifuged at 500 g for five minutes and resuspended at a density of 1.0×10^6 cells/ml in IMDM media supplemented with L-Glutamine (1×), Penicillin-Streptomycin (50 U/mL), holo-transferrin (330 μg/mL), heparin (2 IU/mL), r-human Insulin (10 μg/mL), rhEPO (3 IU/mL), rhSCF (100 ng/mL)+Dox (1 μg/mL) and 5% human plasma. Forty microliters of cell suspension was dispensed into 384-well Low Flange White Flat Bottom Polystyrene TC-treated Microplates containing pre-dispensed compounds, using a VIAFLO 384 liquid hander, and placed in a 37° C. incubator with 5% CO2. […] After 24 hours of treatment, 40 μL Nano-Glo HiBiT Lytic Detection System reagent was dispensed into each well using a VIAFLO 384 liquid hander. Plates were incubated for 25 minutes at room temperature and the luminescence was read as relative luminescent units using the EnVision plate reader. EC50 and Y-min values were calculated using curves calculated from dotmatics software after the normalization to the DMSO control of 10 different concentrations: 10, 3.33, 1.11, 0.37, 0.12, 0.04 0.0137, 0.0046, 0.0015 and […] respectively.

| SMILES | DC50 (WIZ) | DC50 (ZBTB7A) | HBF AUC (HbF) |
| --- | --- | --- | --- |
| Cc1cc(-c2c(Nc3cccc4c3C(=O)N([C@H]3CCC(=O)NC3=O)C4=O)cc3c(c2F)OCC(=O)N3C)c(F)cn1 [Compound 67, 2-((S)-2,6-dioxopiperidin-3-yl)-4-((8-fluoro-7-(5-fluoro-2-methylpyridin-4-yl)-4-methyl-3-oxo-3,4-dihydro-2H-benzo[b][1,4]oxazin-6-yl)amino)isoindoline-1,3-dione] | 0.017 µM | 0.025 µM | ++ (++ = 100 ≤ AUC < 150) |
| COc1nccc(-c2cc3c(cc2Nc2cccc4c2C(=O)N([C@H]2CCC(=O)NC2=O)C4=O)N(C)C(=O)[C@H](C)O3)c1F [Compound 35, 2-((S)-2,6-dioxopiperidin-3-yl)-4-(((S)-7-(3-fluoro-2-methoxypyridin-4-yl)-2,4-dimethyl-3-oxo-3,4-dihydro-2H-benzo[b][1,4]oxazin-6-yl)amino)isoindoline-1,3-dione] | 0.011 µM | 0.008 µM | + (+ = 15 ≤ AUC < 100) |
| COc1ncc(-c2cc3c(cc2Nc2cccc4c2C(=O)N(C2CCC(=O)NC2=O)C4=O)N(C)C(=O)CO3)cc1F (stereo not drawn) [Compound 51, 2-(2,6-dioxopiperidin-3-yl)-4-((7-(5-fluoro-6-methoxypyridin-3-yl)-4-methyl-3-oxo-3,4-dihydro-2H-benzo[b][1,4]oxazin-6-yl)amino)isoindoline-1,3-dione] | 0.037 µM | 0.03 µM | ++ (++ = 100 ≤ AUC < 150) |
| Cc1cc(-c2cc3c(cc2Nc2cccc4c2C(=O)N([C@H]2CCC(=O)NC2=O)C4=O)N(C)[C@@H](C)CO3)ccn1 [Compound 4, 4-(((S)-3,4-dimethyl-7-(2-methylpyridin-4-yl)-3,4-dihydro-2H-benzo[b][1,4]oxazin-6-yl)amino)-2-((S)-2,6-dioxopiperidin-3-yl)isoindoline-1,3-dione] | 0.083 µM | 0.026 µM | +++ (+++ = AUC ≥ 150) |
| Cc1cc(-c2cc3c(cc2Nc2cccc4c2C(=O)N([C@@H]2CCC(=O)NC2=O)C4=O)N(C)C(=O)OC3)ccn1 [Compound 12, (R)-2-(2,6-dioxopiperidin-3-yl)-4-((1-methyl-6-(2-methylpyridin-4-yl)-2-oxo-1,4-dihydro-2H-benzo[d][1,3]oxazin-7-yl)amino)isoindoline-1,3-dione] | 0.037 µM | 0.034 µM | + (+ = 15 ≤ AUC < 100) |
| COc1cc(-c2cc3c(cc2Nc2cccc4c2C(=O)N([C@H]2CCC(=O)NC2=O)C4=O)N(C)C(=O)CO3)ccn1 [Compound 17, (S)-2-(2,6-dioxopiperidin-3-yl)-4-((7-(2-methoxypyridin-4-yl)-4-methyl-3-oxo-3,4-dihydro-2H-benzo[b][1,4]oxazin-6-yl)amino)isoindoline-1,3-dione] | 0.013 µM | 0.018 µM | +++ (+++ = AUC ≥ 150) |
| CCOc1cc(-c2cc3c(cc2Nc2cccc4c2C(=O)N(C2CCC(=O)NC2=O)C4=O)N(C)C(=O)CO3)ccn1 (stereo not drawn) [Compound 52, 2-(2,6-dioxopiperidin-3-yl)-4-((7-(2-ethoxypyridin-4-yl)-4-methyl-3-oxo-3,4-dihydro-2H-benzo[b][1,4]oxazin-6-yl)amino)isoindoline-1,3-dione] | 0.012 µM | 0.143 µM | + (+ = 15 ≤ AUC < 100) |

Further compounds by falling DC50 (WIZ), results first:

| DC50 (WIZ) | DC50 (ZBTB7A) | SMILES | HBF AUC (HbF) |
| --- | --- | --- | --- |
| 0.015 µM | 0.019 µM | Cc1cc(-c2cc3c(cc2Nc2cccc4c2C(=O)N([C@H]2CCC(=O)NC2=O)C4=O)N(C)C(=O)[C@H](C)O3)ccn1 [Compound 5, 4-(((S)-2,4-dimethyl-7-(2-methylpyridin-4-yl)-3-oxo-3,4-dihydro-2H-benzo[b][1,4]oxazin-6-yl)amino)-2-((S)-2,6-dioxopiperidin-3-yl)isoindoline-1,3-dione] | + (+ = 15 ≤ AUC < 100) |
| 0.012 µM | 0.016 µM | Cc1cc(-c2cc3c(cc2Nc2cccc4c2C(=O)N([C@H]2CCC(=O)NC2=O)C4=O)N(C)C(=O)[C@H](C)C3)ccn1 [Compound 87, 4-(((R)-1,3-dimethyl-6-(2-methylpyridin-4-yl)-2-oxo-1,2,3,4-tetrahydroquinolin-7-yl)amino)-2-((S)-2,6-dioxopiperidin-3-yl)isoindoline-1,3-dione] | + (+ = 15 ≤ AUC < 100) |
| 0.012 µM | 0.017 µM | CNc1cc(-c2cc3c(cc2Nc2cccc4c2C(=O)N(C2CCC(=O)NC2=O)C4=O)N(C)C(=O)CO3)ccn1 (stereo not drawn) [Compound 14, 2-(2,6-dioxopiperidin-3-yl)-4-((4-methyl-7-(2-(methylamino)pyridin-4-yl)-3-oxo-3,4-dihydro-2H-benzo[b][1,4]oxazin-6-yl)amino)isoindoline-1,3-dione] | + (+ = 15 ≤ AUC < 100) |
| 0.01 µM | 0.017 µM | Cc1cncc(-c2cc3c(cc2Nc2cccc4c2C(=O)N([C@H]2CCC(=O)NC2=O)C4=O)N(C)C(=O)CO3)c1 [Compound 41, (S)-2-(2,6-dioxopiperidin-3-yl)-4-((4-methyl-7-(5-methylpyridin-3-yl)-3-oxo-3,4-dihydro-2H-benzo[b][1,4]oxazin-6-yl)amino)isoindoline-1,3-dione] | +++ (+++ = AUC ≥ 150) |
| 0.007 µM | 0.009 µM | Cc1cc(-c2cc3c(cc2Nc2cccc4c2C(=O)N([C@H]2CCC(=O)NC2=O)C4=O)N(C)C(=O)CO3)c(F)cn1 [Compound 7, (S)-2-(2,6-dioxopiperidin-3-yl)-4-((7-(5-fluoro-2-methylpyridin-4-yl)-4-methyl-3-oxo-3,4-dihydro-2H-benzo[b][1,4]oxazin-6-yl)amino)isoindoline-1,3-dione] | +++ (+++ = AUC ≥ 150) |
